The values below are quoted from earlier work in patent US9399756B2, “Functionalized fullerenes as a biomass stimulant and a life extension agent” (UNIVERSITY OF FLORIDA RESEARCH FOUNDATION, INC., priority 2010, dated 2016).

Data set [1] deals with mice. As to conditions: injected; Zhou et al. 2009.
Data set [2] has as its system mice. As to conditions: Quick et al., Neurobiology of Aging 2008.

On to (H23C11CO2)2CC60C(CO2CH2CO2H)2, for which the “hair growth in mice” value in the data set on mice [1] was “may stimulate hair growth in mice”. e,e,e-C60(C(CO2H)2)3: the lifespan of mice entry in the data set with mice [2] is given as “may extend the lifespan of mice”.
